Test results as given in ChEMBL document CHEMBL4715863, “Chemistry and Biology of Natural Azoxy Compounds” (J Nat Prod, 2020).
Values after ≈ are worked out from the molar mass of the structure shown.

Tests used:
[1] = tested on: Escherichia coli; assay: Antibacterial activity against Escherichia coli BE1121 by paper disc-agar diffusion method; format: functional
[2] = tested on: KB; assay: Cytotoxicity against human KB cells; format: functional, cell-based

MIC [1] [µg/mL]	SMILES	IC50 [2] [µM]
0.078 (≈ 0.453 µM)	C=C(/N=[N+](\[O-])CC(C)C)C(=O)O	
	[O-]/[N+](CCCCCCCCCC/C=C\CCc1cccnc1)=N\CCCCCCCCCC/C=C\CCc1cccnc1	1.7
